# Test results published in US7253146B2, “Template-fixed peptidomimetics with antimicrobial activity” (Polyphor Ltd, priority 2001, dated 2007).
# *1 amine or outer side, *2 acyl side, *3 side chain or, on linkers, in order; H or OH if unused. Where a SMILES comes first, the peptide text is derived from it. [ ]: non-standard residue; d: D form. The star is where a group is joined. X3 = O=C(N[C@H]1C[C@@H](C(=O)[*:2])N([*:1])C1)C1CCCCC1; X2 = CCCCCCCC(=O)N[C@H]1C[C@@H](C(=O)[*:2])N([*:1])C1; Cha = N[C@@H](CC1CCCCC1)C(=O)O; Nle = CCCC[C@H](N)C(=O)O; Orn = NCCC[C@H](N)C(=O)O; Bn = c1ccc(C*)cc1
# Key:
# Candida albicans = tested on: Candida albicans
# Description: (§1) Lyophilized peptides were weighed on a Microbalance (Mettler MT5) and dissolved in sterile water containing 0.01% acetic acid Tachyplesin was purchased from Bachem Ltd. (Bubendorf Switzerland).
# (§2) The antimicrobial activities of the peptides were determined by the standard NCCLS broth microdilution method (see ref 1, below) examined in sterile 96-wells plates (Nunclon polystyrene microtiter plates) in a total volume of 100 μl. […] 10^6 colony forming units (CFU)/ml for bacteria or 5×10^3 CFU/ml for Candida. Aliquots (50 μl) of the innocula were added to 50 μl of MH broth containing the peptide in serial twofold dilutions. The microorganisms used were Escherichia coli (ATCC 25922), Pseudomnonas aeruginosa (P. aeruginosa) (ATCC 27853), Stahylococcus aureus (ATCC 29213 and ATCC 25923) and Candida albicans. A selected number of peptides were screened for activity against a larger panel of gram-negative strains. These strains were; Escherichia coli ATCC 43827 and clinical isolates of Pseudomonas (P. aeruginosa V07 14482, P. aeruginosa 15288, P. aeruginosa V02 15328 and P. aeruginosa V09 16085) and Acinetobacter (Acinetobacter V04 19905/1, Acinetobacter V12 21143/1 and Acinetobacter V12 21193/1).
# [1] = tested on: Escherichia coli (ATCC 25922); details: ATCC 25922
# Description: as §1, §2
# [2] = tested on: Staphylococcus aureus ATCC 25923; details: ATCC 25923
# Description: as §1, §2
# [3] = tested on: Staphylococcus aureus ATCC 29213; details: ATCC 29213
# Description: as §1, §2
MIC Candida albicans (Candida albicans),MIC Escherichia coli ATCC 25922 [1],MIC Staphylococcus aureus ATCC 25923 [2],MIC Staphylococcus aureus ATCC 29213 [3],Compound
25 µg/mL,6.2 µg/mL,6.2 µg/mL,6.2 µg/mL,CCCCCCCC(=O)N[C@H]1C[C@H]2C(=O)N[C@@H](CC(C)C)C(=O)N[C@@H](CCCNC(=N)N)C(=O)N[C@@H](CC(C)C)C(=O)N[C@@H](CCCCN)C(=O)N[C@@H](CCCCN)C(=O)N[C@@H](CCCNC(=N)N)C(=O)N[C@@H](CCCNC(=N)N)C(=O)N[C@@H](Cc3c[nH]c4ccccc34)C(=O)N[C@@H](CCCCN)C(=O)N[C@@H](Cc3ccc(O)cc3)C(=O)N[C@@H](CCCNC(=N)N)C(=O)N[C@@H](C(C)C)C(=O)N3CCC[C@@H]3C(=O)N2C1 [Example 257] (cyclo(KKRRWKYRV[dP][X2]LRL))
6.2 µg/mL,6.2 µg/mL,12.5 µg/mL,12.5 µg/mL,CC(C)C[C@@H]1NC(=O)[C@H](CCCNC(=N)N)NC(=O)[C@H](CC(C)C)NC(=O)[C@@H]2CCCN2C(=O)[C@H]2CCCN2C(=O)[C@H](C(C)C)NC(=O)[C@H](CCCNC(=N)N)NC(=O)[C@H]([C@@H](C)OCc2ccccc2)NC(=O)[C@H](CCCCN)NC(=O)[C@H](Cc2c[nH]c3ccccc23)NC(=O)[C@H](CCCNC(=N)N)NC(=O)[C@H](CCCNC(=N)N)NC(=O)[C@H](CCCCN)NC(=O)[C@H](CCCCN)NC1=O [Example 206] (cyclo(LRLKKRRWKT(Bn)RV[dP]P))
12.5 µg/mL,12.5 µg/mL,12.5 µg/mL,6.2 µg/mL,CC(C)C[C@@H]1NC(=O)[C@H](CCCNC(=N)N)NC(=O)[C@H](CC(C)C)NC(=O)[C@@H]2C[C@H](NC(=O)C3CCCCC3)CN2C(=O)[C@H]2CCCN2C(=O)[C@H](C(C)C)NC(=O)[C@H](CCCNC(=N)N)NC(=O)[C@H](Cc2ccc(O)cc2)NC(=O)[C@H](CCCCN)NC(=O)[C@H](Cc2c[nH]c3ccccc23)NC(=O)[C@H](CCCNC(=N)N)NC(=O)[C@H](CCCNC(=N)N)NC(=O)[C@H](CCCCN)NC(=O)[C@H](CCCCN)NC1=O [Example 267] (cyclo(KKRRWKYRV[dP][X3]LRL))
12.5 µg/mL,12.5 µg/mL,12.5 µg/mL,6.2 µg/mL,CC(C)C[C@@H]1NC(=O)[C@H](CCCNC(=N)N)NC(=O)[C@H](CC(C)C)NC(=O)[C@H](CC2CCCCC2)NC(=O)[C@H]2CCCN2C(=O)[C@H](C(C)C)NC(=O)[C@H](CCCNC(=N)N)NC(=O)[C@H](Cc2ccc(O)cc2)NC(=O)[C@H](CCCCN)NC(=O)[C@H](Cc2c[nH]c3ccccc23)NC(=O)[C@H](CCCNC(=N)N)NC(=O)[C@H](CCCNC(=N)N)NC(=O)[C@H](CCCCN)NC(=O)[C@H](CCCCN)NC1=O [Example 254] (cyclo([Cha]LRLKKRRWKYRV[dP]))
12.5 µg/mL,18.8 µg/mL,25 µg/mL,12.5 µg/mL,CC(C)C[C@@H]1NC(=O)[C@H](CCCNC(=N)N)NC(=O)[C@H](CC(C)C)NC(=O)[C@@H]2CCCN2C(=O)[C@H]2CCCN2C(=O)[C@H](C(C)C)NC(=O)[C@H](CCCNC(=N)N)NC(=O)[C@H](Cc2ccc(O)cc2)NC(=O)[C@H](CCCN)NC(=O)[C@H](Cc2c[nH]c3ccccc23)NC(=O)[C@H](CCCNC(=N)N)NC(=O)[C@H](CCCNC(=N)N)NC(=O)[C@H](CCCCN)NC(=O)[C@H](CCCCN)NC1=O [Example 217] (cyclo(LRLKKRRW[Orn]YRV[dP]P))
12.5 µg/mL,12.5 µg/mL,12.5 µg/mL,25 µg/mL,CCCC[C@@H]1NC(=O)[C@H](CCCCN)NC(=O)[C@H](Cc2c[nH]c3ccccc23)NC(=O)[C@H](CCCNC(=N)N)NC(=O)[C@H](CCCNC(=N)N)NC(=O)[C@H](CCCCN)NC(=O)[C@H](CCCCN)NC(=O)[C@H](CC(C)C)NC(=O)[C@H](CCCNC(=N)N)NC(=O)[C@H](CC(C)C)NC(=O)[C@@H]2CCCN2C(=O)[C@H]2CCCN2C(=O)[C@H](C(C)C)NC(=O)[C@H](CCCNC(=N)N)NC1=O [Example 154] (cyclo(LRLKKRRWK[Nle]RV[dP]P))

# Second part, the compound before the results:
Compound,MIC Candida albicans (Candida albicans),MIC Escherichia coli ATCC 25922 [1],MIC Staphylococcus aureus ATCC 25923 [2],MIC Staphylococcus aureus ATCC 29213 [3]
CC(C)C[C@@H]1NC(=O)[C@H](CCCNC(=N)N)NC(=O)[C@H](CCCNC(=N)N)NC(=O)[C@H](CCCNC(=N)N)NC(=O)[C@H](Cc2ccc(O)cc2)NC(=O)[C@H](Cc2ccc(O)cc2)NC(=O)[C@H](CCCNC(=N)N)NC(=O)[C@@H]2CCCN2C(=O)[C@H]2CCCN2C(=O)[C@H](CCCNC(=N)N)NC(=O)[C@H](Cc2ccc(O)cc2)NC1=O [Example 11] (cyclo(RYYRRRLYR[dP]P)),100 µg/mL,25 µg/mL,100 µg/mL,100 µg/mL
CC(C)C[C@@H]1NC(=O)[C@H](CCCNC(=N)N)NC(=O)[C@H](CCCCN)NC(=O)[C@@H]2CCCN2C(=O)[C@H]2CCCN2C(=O)[C@H](CCCNC(=N)N)NC(=O)[C@H](CC(C)C)NC(=O)[C@H](C(C)C)NC(=O)[C@H](CCCCN)NC(=O)[C@H](C(C)C)NC(=O)[C@H](Cc2ccc(O)cc2)NC(=O)[C@H](Cc2c[nH]c3ccccc23)NC(=O)[C@H](CCCNC(=N)N)NC(=O)[C@H](CCCNC(=N)N)NC(=O)[C@H](CCCNC(=N)N)NC(=O)[C@H](Cc2c[nH]c3ccccc23)NC(=O)[C@H](Cc2ccc(O)cc2)NC(=O)[C@H](CCCCN)NC1=O [Example 87] (cyclo(KRLKYWRRRWYVKVLR[dP]P)),12.5 µg/mL,6.2 µg/mL,9.4 µg/mL,9.4 µg/mL
CC(C)C[C@@H]1NC(=O)[C@H](Cc2ccc(O)cc2)NC(=O)[C@H](CCCNC(=N)N)NC(=O)[C@H](CCCNC(=N)N)NC(=O)[C@H](CCCNC(=N)N)NC(=O)[C@H](Cc2ccc(O)cc2)NC(=O)[C@H](CC(C)C)NC(=O)[C@H](CC(C)C)NC(=O)[C@H](Cc2ccc(O)cc2)NC(=O)[C@H](CCCNC(=N)N)NC(=O)[C@@H]2CCCN2C(=O)[C@H]2CCCN2C(=O)[C@H](CCCNC(=N)N)NC(=O)[C@H](CCCNC(=N)N)NC(=O)[C@H](Cc2ccc(O)cc2)NC(=O)[C@H](CC(C)C)NC1=O [Example 71] (cyclo(RYLLYRRRYLLYRR[dP]P)),50 µg/mL,12.5 µg/mL,12.5 µg/mL,12.5 µg/mL
CC[C@H](C)[C@@H]1NC(=O)[C@H](CCCCN)NC(=O)[C@H](Cc2c[nH]c3ccccc23)NC(=O)[C@H](CCCNC(=N)N)NC(=O)[C@H](CCCNC(=N)N)NC(=O)[C@H](CCCCN)NC(=O)[C@H](CCCCN)NC(=O)[C@H](CC(C)C)NC(=O)[C@H](CCCNC(=N)N)NC(=O)[C@H](CC(C)C)NC(=O)[C@@H]2CCCN2C(=O)[C@H]2CCCN2C(=O)[C@H](C(C)C)NC(=O)[C@H](CCCNC(=N)N)NC1=O [Example 152] (cyclo(LRLKKRRWKIRV[dP]P)),12.5 µg/mL,25 µg/mL,25 µg/mL,50 µg/mL
CC(C)C[C@@H]1NC(=O)[C@H](CCCNC(=N)N)NC(=O)[C@H](CCCNC(=N)N)NC(=O)[C@H](CCCNC(=N)N)NC(=O)[C@H](Cc2ccccc2)NC(=O)[C@H](Cc2ccccc2)NC(=O)[C@H](CC(C)C)NC(=O)[C@H](CC(C)C)NC(=O)[C@@H]2CCCN2C(=O)[C@H]2CCCN2C(=O)[C@H](CCCNC(=N)N)NC(=O)[C@H](Cc2ccccc2)NC1=O [Example 40] (cyclo(LLFFRRRLFR[dP]P)),25 µg/mL,25 µg/mL,50 µg/mL,25 µg/mL
CC(C)C[C@@H]1NC(=O)[C@H](CCCNC(=N)N)NC(=O)[C@H](CC(C)C)NC(=O)[C@@H]2CCCN2C(=O)[C@H]2CCCN2C(=O)[C@H](C(C)C)NC(=O)[C@H](CCCNC(=N)N)NC(=O)[C@H](Cc2ccc(O)cc2)NC(=O)[C@H](CCCCN)NC(=O)[C@H](Cc2ccccc2)NC(=O)[C@H](CCCNC(=N)N)NC(=O)[C@H](CCCNC(=N)N)NC(=O)[C@H](Cc2ccc(O)cc2)NC(=O)[C@H](CCCCN)NC1=O [Example 103] (cyclo(LRLKYRRFKYRV[dP]P)),12.5 µg/mL,9.4 µg/mL,25 µg/mL,25 µg/mL
CC(C)C[C@@H]1NC(=O)[C@H](CCCNC(=N)N)NC(=O)[C@H](CCCNC(=N)N)NC(=O)[C@H](CCCNC(=N)N)NC(=O)[C@H](Cc2ccccc2)NC(=O)[C@H](Cc2ccccc2)NC(=O)[C@H](CC(C)C)NC(=O)[C@H](CCCNC(=N)N)NC(=O)[C@@H]2CCCN2C(=O)[C@H]2CCCN2C(=O)[C@H](CCCNC(=N)N)NC(=O)[C@H](Cc2ccccc2)NC1=O [Example 36] (cyclo(RLFFRRRLFR[dP]P)),25 µg/mL,25 µg/mL,50 µg/mL,25 µg/mL
